Assay results taken from patent publication US6875761B2 (Eisai Co., Ltd., priority 1997, dated 2005).
Where a name gives a salt, the structure may show the parent alone.

Compound | melting point
CCN1CCN(c2nc(-c3ccc(S(=O)(=O)N(C)C)cc3)cc3ccccc23)CC1 (as salt: hydrochloride) [Example 362, 1-(4-ethylpiperazin-1-yl)-3-[4-(N,N-dimethylsulfamoyl)phenyl]isoquinoline dihydrochloride] | 155 to 156 °C
CCN1CCN(c2nc(-c3ccc(S(=O)(=O)NC4CC4)cc3)cc3ccccc23)CC1 (as salt: hydrochloride) [Example 363, 1-(4-ethylpiperazin-1-yl)-3-[4-(N-cyclopropylsulfamoyl)phenyl]isoquinoline dihydrochloride] | 158 to 159.5 °C
CCNC(=O)c1ccc(-c2cc3ccccc3c(N3CCN(CC)CC3)n2)cc1 (as salt: hydrochloride) [Example 364, 1-(4-ethylpiperazin-1-yl)-3-[4-(N-ethylcarbamoyl)phenyl]isoquinoline dihydrochloride] | 160 to 160.5 °C
CCN1CCN(c2nc(-c3ccc(C(=O)NC)cc3)cc3ccccc23)CC1 (as salt: hydrochloride) [Example 365, 1-(4-ethylpiperazin-1-yl)-3-[4-(N-methylcarbamoyl)phenyl]isoquinoline dihydrochloride] | 161.5 to 163 °C
CCN1CCN(c2nc(-c3ccc(S(=O)(=O)CC)cc3)cc3ccccc23)CC1 (as salt: hydrochloride) [Example 366, 1-(4-ethylpiperazin-1-yl)-3-[4-(ethylsulfonyl)phenyl]isoquinoline dihydrochloride] | 150 to 151.5 °C
CCN1CCN(c2nc(-c3ccc(OCCOC)c(F)c3)cc3ccccc23)CC1 (as salt: hydrochloride) [Example 367, 1-(4-ethylpiperazin-1-yl)-3-(3-fluoro-4-methoxyethoxyphenyl)isoquinoline dihydrochloride] | 112.5 to 114 °C
CCN1CCN(c2nc(-c3cc(F)c(OCCOC)c(F)c3)cc3ccccc23)CC1 (as salt: hydrochloride) [Example 368, 1-(4-ethylpiperazin-1-yl)-3-(3,5-difluoro-4-methoxyethoxyphenyl)isoquinoline dihydrochloride] | 110 to 112 °C
CCN1CCN(c2nc(-c3ccc(OCCO)c(F)c3)cc3ccccc23)CC1 (as salt: hydrochloride) [Example 369, 1-(4-ethylpiperazin-1-yl)-3-[3-fluoro-4-(2-hydroxyethoxy)phenyl]isoquinoline dihydrochloride] | 119 to 120 °C
CCN1CCN(c2nc(-c3cc(F)c(OCCO)c(F)c3)cc3ccccc23)CC1 (as salt: hydrochloride) [Example 370, 1-(4-ethylpiperazin-1-yl)-3-[3,5-difluoro-4-(2-hydroxyethoxy)phenyl]isoquinoline] | 112.5 to 114 °C
CCN1CCN(c2nc(-c3cc(F)c(OCCF)c(F)c3)cc3ccccc23)CC1 (as salt: hydrochloride) [Example 371, 1-(4-ethylpiperazin-1-yl)-3-[3,5-difluoro-4-(2-fluoroethoxy)phenyl]isoquinoline dihydrochloride] | 105 to 105.5 °C
CCN1CCN(c2nc(-c3ccc(CC(C)=O)cc3)cc3ccccc23)CC1 (as salt: hydrochloride) [Example 375, 1-(4-ethylpiperazin-1-yl)-3-[4-(2-oxopropyl)phenyl]isoquinoline dihydrochloride] | 125 to 126 °C
CCCNC(=O)c1ccc(-c2cc3ccccc3c(N3CCN(CC)CC3)n2)cc1F (as salt: hydrochloride) [Example 384, 1-(4-Ethylpiperazin-1-yl)-3-[4-(N-Propylcarbamoyl)-3-Fluorophenyl]Isoquinoline Dihydrochloride] | 124 to 125 °C (dec.)
CCN1CCN(c2nc(-c3ccc(CCO)c(F)c3)cc3ccccc23)CC1 (as salt: hydrochloride) [Example 385, 1-(4-Ethylpiperazin-1-yl)-3-[3-Fluoro-4-(2-Hydroxyethyl)Phenyl]Isoquinoline Dihydrochloride] | 213 to 215 °C (dec.)
CCN1CCN(c2nc(-c3ccc(C(O)CO)cc3)cc3ccccc23)CC1 (stereo not shown) (as salt: hydrochloride) [Example 387, 1-(4-Ethylpiperazin-1-yl)-3-[4-(1,2-Dihydroxyethyl)Phenyl]Isoquinoline Dihydrochloride] | 132 to 133 °C
CCN1CCN(c2nc(-c3ccc(CCC(C)(C)O)cc3)cc3ccccc23)CC1 (as salt: hydrochloride) [Example 388, 1-(4-Ethylpiperazin-1-yl)-3-[4-(3-Hydroxy-3-Methylbutyl)Phenyl]Isoquinoline Dihydrochloride] | 205 to 206 °C
CCN1CCN(c2nc(-c3ccc(C(O)C(C)(C)CO)cc3)cc3ccccc23)CC1 (stereo not shown) (as salt: hydrochloride) [Example 391, 1-(4-Ethylpiperazin-1-yl)-3-[4-(1,3-Dihydroxy-2,2-Dimethylpropyl)Phenyl]Isoquinoline Dihydrochloride] | 150.5 to 151.5 °C
CCN1CCN(c2nc(-c3ccc4c(c3)CC(CO)C4)cc3ccccc23)CC1 (stereo not shown) (as salt: hydrochloride) [Example 393, 1-(4-Ethylpiperazin-1-yl)-3-(2-Hydroxymethylindan-5-yl)Isoquinoline Dihydrochloride] | 136.5 to 138 °C

Compound | melting point
CCN1CCN(c2nc(-c3ccc(CO)c(CO)c3)cc3ccccc23)CC1 (as salt: hydrochloride) [Example 394, 1-(4-Ethylpiperazin-1-yl)-3-[(3,4-Dihydroxymethyl)Phenyl]Isoquinoline Dihydrochloride] | 130.5 to 132 °C (dec.)
CCN1CCN(c2nc(-c3ccc(C4COCCO4)cc3)cc3ccccc23)CC1 (stereo not shown) (as salt: hydrochloride) [Example 395, 1-(4-Ethylpiperazin-1-yl)-3-[4-(1,4-Dioxan-2-yl)Phenyl]Isoquinoline Dihydrochloride] | 163 to 166 °C (dec.)
CCN1CCN(c2nc(-c3ccc(C4CCCO4)cc3)cc3ccccc23)CC1 (stereo not shown) (as salt: hydrochloride) [Example 396, 1-(4-Ethylpiperazin-1-yl)-3-[4-(Tetrahydrofuran-2-yl)Phenyl]Isoquinoline Dihydrochloride] | 129 to 130 °C
CCN1CCN(c2nc(-c3ccc([C@H]4CC[C@@H](O)CC4)cc3)cc3ccccc23)CC1 (as salt: hydrochloride) [Example 397, 1-(4-Ethylpiperazin-1-yl)-3-[4-(cis-4-Hydroxycyclohexyl)Phenyl]Isoquinoline Dihydrochloride] | 152 to 153 °C
CCN1CCN(c2nc(-c3ccc([C@H]4CC[C@H](O)CC4)cc3)cc3ccccc23)CC1 (as salt: hydrochloride) [Example 398, 1-(4-Ethylpiperazin-1-yl)-3-[4-(trans-4-Hydroxycyclohexyl)Phenyl]Isoquinoline Dihydrochloride] | 157 to 158 °C (dec.)
CCN1CCN(c2nc(-c3ccc(CC4CCOCC4)cc3)cc3ccccc23)CC1 (as salt: hydrochloride) [Example 399, 1-(4-Ethylpiperazin-1-yl)-3-[4-(tetrahydropyran-4-yl)Methylphenyl]Isoquinoline Dihydrochloride] | 182 to 184 °C (dec.)
CCN1CCN(c2nc(-c3ccc(OC[C@@H](C)O)cc3)cc3ccccc23)CC1 (as salt: hydrochloride) [Example 403, 1-(4-ethylpiperazin-1-yl)-3-[4-(2-hydroxypropoxy)phenyl]isoquinoline Dihydrochloride] | 112 to 114 °C
CCN1CCN(c2nc(-c3ccc(O[C@@H](C)CO)cc3)cc3ccccc23)CC1 (as salt: hydrochloride) [Example 404, 1-(4-ethylpiperazin-1-yl)-3-[4-(2-hydroxy-1-methylethoxy)phenyl]isoquinoline Dihydrochloride] | 128 to 129 °C
CCN1CCN(c2nc(-c3ccnc(OC)c3)cc3ccccc23)CC1 (as salt: hydrochloride) [Example 405, 1-(4-ethylpiperazin-1-yl)-3-(2-methoxypyridin-4-yl)isoquinoline] | 174 to 176 °C
CCN1CCN(c2nc(-c3ccnc(OCCOC)c3)cc3ccccc23)CC1 (as salt: hydrochloride) [Example 407, 1-(4-ethylpiperazin-1-yl)-3-[2-(2-methoxyethoxy)pyridin-4-yl]isoquinoline] | 139 to 140 °C
CCN1CCN(c2nc(-c3ccc(C(N)=O)cc3)cc3ccccc23)CC1 (as salt: hydrochloride) [Example 408, 1-(4-ethylpiperazin-1-yl)-3-(4-carbamoylphenyl)isoquinoline] | 197 to 199 °C
CCN1CCN(c2nc(-c3ccc(C(O)C4CCCCC4)cc3)cc3ccccc23)CC1 (stereo not shown) (as salt: hydrochloride) [Example 409, 1-(4-ethylpiperazin-1-yl)-3-[4-(cyclohexylhydroxymethyl)phenyl]isoquinoline] | 153 to 155 °C
CCN1CCN(c2nc(-c3ccc(C(O)(c4nccs4)c4nccs4)cc3)cc3ccccc23)CC1 (as salt: hydrochloride) [Example 411, 1-(4-ethylpiperazin-1-yl)-3-{4-[bis(1,3-thiazol-2-yl)hydroxymethyl]phenyl}isoquinoline] | 157 to 158 °C
CCN1CCN(c2nc(-c3ccc4c(c3)CCC4=O)cc3ccccc23)CC1 (as salt: hydrochloride) [Example 414, 1-(4-ethylpiperazin-1-yl)-3-(1-indanon-5-yl)isoquinoline] | 233 °C (dec.)
CCN1CCN(c2nc(-c3ccc(CCC(C)(C)O)c(F)c3)cc3ccccc23)CC1 (as salt: hydrochloride) [Example 416, 1-(4-ethylpiperazin-1-yl)-3-[4-(3-hydroxy-3-methylbutyl)-3-fluorophenyl]isoquinoline] | 206 to 207 °C
CCN1CCN(c2nc(-c3ccc(OCCO)c(C#N)c3)cc3ccccc23)CC1 (as salt: hydrochloride) [Example 417, 1-(4-ethylpiperazin-1-yl)-3-[3-cyano-4-(2-hydroxyethoxy)phenyl]isoquinoline] | 162 to 164 °C
CCN1CCN(c2nc(-c3cccc(CCCO)c3)cc3ccccc23)CC1 (as salt: hydrochloride) [Example 418, 1-(4-ethylpiperazin-1-yl)-3-[3-(3-hydroxypropyl)phenyl]isoquinoline] | 101 to 103 °C
